Some test systems named below: SNB-19 CNS; NCI-H23 lung; DU-145 prostate; NCI-H460 lung; MCF7 breast; OVCAR-8 ovarian; HT29 colon; HS 578T breast; UACC-257 melanoma; OVCAR-4 ovarian; SR leukemia.
Holding throughout (test): NCI tumour cell line growth inhibition, 48 h

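Results reflect a 48-hour exposure of cells in 96-well plates to compound at five concentrations. GI50 = concentration required for 50% inhibition of growth. TGI is the concentration that stops growth completely.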

In the case of `O=C(CN1CCN(Cc2ccccc2)CC1)N1CCCn2c1nc1ccccc1c2=O`, the TGI with SNB-19 CNS, in the assay on NCI-H23 lung, with DU-145 prostate, in the assay with NCI-H460 lung, in the assay with MCF7 breast and with OVCAR-8 ovarian was more than 100 µM each time. In addition, the TGI in the assay on HT29 colon, with HS 578T breast, with UACC-257 melanoma, in the assay with OVCAR-4 ovarian and in the assay on SR leukemia was more than 100 µM each time.
In the case of `O=C(Nc1cccc(C(F)(F)F)c1)O/N=C(/Cl)CCl`, the TGI in the assay on SNB-19 CNS, in the assay with NCI-H23 lung, in the assay on DU-145 prostate, in the assay on NCI-H460 lung, in the assay with MCF7 breast and in the assay on OVCAR-8 ovarian was more than 100 µM in each case. Further, the TGI is more than 100 µM in the assay with HT29 colon; more than 100 µM with HS 578T breast; more than 100 µM in the assay with UACC-257 melanoma; more than 100 µM in the assay on OVCAR-4 ovarian; 62.8 µM with SR leukemia.
`Cc1ccnc2[nH]c(-c3cccc(Cl)c3)cc(=O)c12`: the TGI in the assay on SNB-19 CNS, in the assay on NCI-H23 lung, in the assay on DU-145 prostate, in the assay with NCI-H460 lung, in the assay with MCF7 breast and with OVCAR-8 ovarian was more than 100 µM each time. The TGI with HT29 colon, in the assay with HS 578T breast, in the assay on UACC-257 melanoma, in the assay on OVCAR-4 ovarian and with SR leukemia was more than 100 µM in each case.
As to `C/C(=N/NC(=S)Nc1ccccc1Cl)c1cccc(/C(C)=N\NC(=S)Nc2ccccc2Cl)n1`, the TGI in the assay with SNB-19 CNS was more than 100 µM; with NCI-H23 lung it was more than 100 µM; with DU-145 prostate, more than 100 µM; in the assay on NCI-H460 lung it was more than 100 µM; in the assay with MCF7 breast it was 93.7 µM; in the assay with OVCAR-8 ovarian it was 81.8 µM. The TGI in the assay with HT29 colon, in the assay on HS 578T breast, with UACC-257 melanoma, in the assay on OVCAR-4 ovarian and in the assay on SR leukemia was more than 100 µM each time.
`CC(C(=O)ON1C(=O)CCC1=O)c1ccc(C(=O)c2ccccc2)s1` (stereo not drawn): the TGI in the assay with SNB-19 CNS, in the assay with NCI-H23 lung, with DU-145 prostate, in the assay with NCI-H460 lung, in the assay on MCF7 breast and in the assay with OVCAR-8 ovarian was more than 100 µM throughout. For the same compound, the TGI with HT29 colon, in the assay on HS 578T breast, with UACC-257 melanoma, with OVCAR-4 ovarian and in the assay with SR leukemia was more than 100 µM in each case.
On to `C=CCOCn1cnc2c(N)ncnc21`, for which the TGI in the assay with SNB-19 CNS, with NCI-H23 lung, in the assay with DU-145 prostate, in the assay with NCI-H460 lung, in the assay on MCF7 breast and in the assay on OVCAR-8 ovarian was more than 100 µM in each case. Besides, the TGI in the assay on HT29 colon, in the assay on HS 578T breast, in the assay on UACC-257 melanoma, with OVCAR-4 ovarian and with SR leukemia was more than 100 µM each time.
In the case of `CN(C)c1ccc(/C=C2\N=C(NN)NC2=O)cc1`, the TGI in the assay on SNB-19 CNS, in the assay on NCI-H23 lung, in the assay with DU-145 prostate, in the assay on NCI-H460 lung, in the assay with MCF7 breast and in the assay on OVCAR-8 ovarian was more than 100 µM throughout. For the same compound, the TGI is 98.9 µM with HT29 colon; more than 100 µM with HS 578T breast; more than 100 µM in the assay on UACC-257 melanoma; more than 100 µM with OVCAR-4 ovarian; more than 100 µM in the assay with SR leukemia.
Take `CCCCCC(=O)N[C@@H](c1ccccc1)C(O)C(=O)OC1C[C@@]2(O)C(OC(=O)c3ccccc3)C3[C@](C)(C(=O)[C@H](O)C(=C1C)C2(C)C)C(OC1OCC(O)C(O)C1O)C[C@H]1OC[C@@]31OC(C)=O` (stereo partly drawn): the TGI was more than 100 µM in the assay on SNB-19 CNS; more than 100 µM in the assay with NCI-H23 lung; 13.4 µM with DU-145 prostate; more than 100 µM in the assay with NCI-H460 lung; more than 56.7 µM in the assay with MCF7 breast; more than 100 µM in the assay on OVCAR-8 ovarian. Further, the TGI is more than 36.8 µM with HT29 colon; 8.23 µM with HS 578T breast; more than 100 µM in the assay with UACC-257 melanoma; more than 100 µM with OVCAR-4 ovarian; 40.2 µM in the assay on SR leukemia.
As to `Cc1ccc(N=Nc2c(O)ccc3cc(S(=O)(=O)O)ccc23)c(C)c1`, the TGI in the assay with SNB-19 CNS, in the assay with NCI-H23 lung, with DU-145 prostate, in the assay with NCI-H460 lung, with MCF7 breast and in the assay with OVCAR-8 ovarian was more than 100 µM each time. Also, the TGI in the assay on HT29 colon, in the assay with HS 578T breast, in the assay with UACC-257 melanoma, with OVCAR-4 ovarian and with SR leukemia was more than 100 µM throughout.
Consider `CCOC(=O)c1c(Br)c(-c2ccc(Br)cc2)c(Br)n1C`, for which the TGI with SNB-19 CNS is more than 100 µM; in the assay on NCI-H23 lung, more than 100 µM; with DU-145 prostate, more than 100 µM; in the assay with NCI-H460 lung, more than 100 µM; in the assay on MCF7 breast, 80.7 µM; with OVCAR-8 ovarian, 87.1 µM. The TGI in the assay with HT29 colon is 42.5 µM; in the assay with HS 578T breast, more than 100 µM; with UACC-257 melanoma, 78 µM; with OVCAR-4 ovarian, more than 100 µM; with SR leukemia, 26.1 µM. The GI50 in the assay with SR leukemia was 10 µM.
`COC(=O)c1ccccc1C#CC#Cc1ccccc1C(=O)OC`: the TGI in the assay on SNB-19 CNS, in the assay with NCI-H23 lung, with DU-145 prostate, in the assay with NCI-H460 lung, in the assay with MCF7 breast and in the assay on OVCAR-8 ovarian was more than 10 µM each time. The TGI in the assay on HT29 colon, in the assay on HS 578T breast, with UACC-257 melanoma, with OVCAR-4 ovarian and in the assay with SR leukemia was more than 10 µM throughout.
Turning to `COc1cc(OC)c2c(O)c3c(cc2c1)CC(C)(C)CC3=O`, the TGI in the assay on SNB-19 CNS, in the assay with NCI-H23 lung, with DU-145 prostate, in the assay on NCI-H460 lung, in the assay with MCF7 breast and in the assay with OVCAR-8 ovarian was more than 100 µM each time. For the same compound, the TGI in the assay with HT29 colon, in the assay with HS 578T breast, with UACC-257 melanoma, in the assay on OVCAR-4 ovarian and in the assay with SR leukemia was more than 100 µM each time.
